PubChem BioAssay (NCI)
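Method: 48-hour compound exposure of cells in 96-well plates, five concentrations, linear interpolation of endpoints. The concentration for 50% growth inhibition is given as GI50. At the TGI there is no net growth.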

What was measured:
Assay in all cases: NCI anticancer screen, dose series, 48 h
HOP-62 NSCLC = system: HOP-62 NSCLC
U251 CNS = system: U251 CNS
LOX IMVI melanoma = system: LOX IMVI melanoma
SNB-19 CNS = system: SNB-19 CNS
SF-295 CNS = system: SF-295 CNS
SK-MEL-5 melanoma = system: SK-MEL-5 melanoma
EKVX NSCLC = system: EKVX NSCLC
SNB-75 CNS = system: SNB-75 CNS
NCI-H460 lung = system: NCI-H460 lung
UACC-257 melanoma = system: UACC-257 melanoma

Compound | GI50 (HOP-62 NSCLC) | TGI (HOP-62 NSCLC) | GI50 (U251 CNS) | TGI (U251 CNS) | GI50 (LOX IMVI melanoma) | TGI (LOX IMVI melanoma) | GI50 (SNB-19 CNS) | TGI (SNB-19 CNS) | GI50 (SF-295 CNS) | TGI (SF-295 CNS) | GI50 (SK-MEL-5 melanoma) | TGI (SK-MEL-5 melanoma) | GI50 (EKVX NSCLC) | TGI (EKVX NSCLC) | GI50 (SNB-75 CNS) | TGI (SNB-75 CNS) | GI50 (NCI-H460 lung) | TGI (NCI-H460 lung) | TGI (UACC-257 melanoma) | GI50 (UACC-257 melanoma)
COc1ccccc1C1=C(Nc2ccccc2)C(=O)NC1=O | > 25 µM | > 25 µM | > 25 µM | > 25 µM | > 25 µM | > 25 µM | > 25 µM | > 25 µM | > 25 µM | > 25 µM | > 25 µM | > 25 µM | > 25 µM | > 25 µM | > 18.1 µM | > 25 µM | > 25 µM | > 25 µM | – | –
O=[N+]([O-])c1ccc(-c2noc(-c3ccc(Cl)cc3)c2C2=NCCN2)cc1 | – | > 100 µM | – | > 100 µM | – | > 100 µM | – | > 100 µM | – | > 100 µM | – | > 100 µM | – | > 100 µM | – | – | – | > 100 µM | > 100 µM | –
CCN(Cc1ccc(F)cc1)c1ccc(CO)c(C)c1 | 17.7 µM | 39.1 µM | 12.1 µM | 40.1 µM | 14.9 µM | 29 µM | 31.4 µM | > 100 µM | 10.9 µM | 32.8 µM | 10.2 µM | 22.8 µM | – | – | 4.1 µM | 20.2 µM | 11.5 µM | 32.3 µM | 15 µM | 2.92 µM
C=C1C(=O)O[C@H]2[C@H]1CC/C(COC(=O)CCSCCC(=O)OC/C1=C/CC[C@@]3(C)O[C@H]3[C@H]3OC(=O)C(=C)[C@@H]3CC1)=C\CC[C@@]1(C)O[C@@H]21 | 2.36 µM | 7.94 µM | 1.39 µM | 3.45 µM | 0.44 µM | 1.6 µM | 2.43 µM | 7.29 µM | 1.77 µM | 3.94 µM | 1.64 µM | 3.14 µM | 1.42 µM | 3.39 µM | – | – | 1.86 µM | 4.21 µM | 3.6 µM | 1.64 µM
COc1cccc(/C=N/NC(=S)NC2CC3CCC2C3)c1O (stereo not drawn) | 3.01 µM | 10 µM | 7.57 µM | 26.7 µM | 5.09 µM | 18 µM | 14.6 µM | 35.9 µM | 4.63 µM | 18 µM | 13.9 µM | 77.4 µM | – | – | 1.58 µM | 5.47 µM | 2.47 µM | 8.43 µM | 38.7 µM | 15.1 µM
COc1cc(OC)c2nccc(NCCCN(C)C)c2c1[N+](=O)[O-] | – | > 100 µM | – | > 100 µM | – | > 100 µM | – | > 100 µM | – | > 100 µM | – | > 100 µM | – | – | – | > 100 µM | – | > 100 µM | > 100 µM | –
O=C(CCC(=O)Nc1ccc(Cl)c(Cl)c1)CC(=O)c1ccc(F)cc1 | – | > 100 µM | – | > 100 µM | – | > 100 µM | – | > 100 µM | – | > 100 µM | – | > 100 µM | – | > 100 µM | – | – | – | > 100 µM | > 100 µM | –
O=C(CC1(O)C(=O)Nc2ccc(Br)cc21)c1ccc(Cl)cc1Cl (stereo not drawn) | – | > 100 µM | – | > 100 µM | – | – | – | > 100 µM | – | > 100 µM | – | – | – | > 100 µM | – | > 100 µM | – | > 100 µM | > 100 µM | –
COc1cccc(-c2ccc3c(c2)C2CCN(Cc4ccccc4)C3C2)c1 (stereo not drawn) | 12.1 µM | 35.6 µM | 7.63 µM | 22 µM | 10.2 µM | 26.8 µM | 12.9 µM | 30.5 µM | 4.08 µM | 20.9 µM | 3.51 µM | 14.7 µM | – | – | 6.69 µM | 27.2 µM | 4.13 µM | 15.7 µM | 29.1 µM | 11.2 µM
CC(=O)N1N=C(c2ccc(Nc3ccnc4cc(Cl)ccc34)cc2)CC1c1ccc(Cl)cc1 (stereo not drawn) | > 100 µM | > 100 µM | > 100 µM | > 100 µM | 3.15 µM | > 100 µM | > 100 µM | > 100 µM | 3.58 µM | > 100 µM | 2.2 µM | 16 µM | – | – | – | – | > 100 µM | > 100 µM | > 100 µM | > 100 µM
CCOc1cc(Br)c(C(C)NC(=O)c2cccc(OC)c2)cc1OCC (stereo not drawn) | 10.6 µM | > 100 µM | 11.4 µM | > 100 µM | 22.8 µM | > 100 µM | 11.8 µM | > 100 µM | 8.3 µM | > 89.5 µM | 8.06 µM | 34.9 µM | – | – | 6.04 µM | 51.7 µM | 6.02 µM | > 81.5 µM | > 100 µM | 22.5 µM
CN(C)C(=Nc1nc(=[N+](C)C)ss1)N(C)C | – | > 100 µM | – | > 100 µM | – | – | – | > 100 µM | – | > 100 µM | – | > 100 µM | – | > 100 µM | – | > 100 µM | – | > 100 µM | > 100 µM | –
